Assay results from patent US10047083B2, “Dihydropyrimidinoisoquinolinones and pharmaceutical compositions thereof for the treatment of inflammatory disorders” (GALAPAGOS NV, priority 2011, dated 2018).

Columns and labels:
[1] = test system: human neutrophils; experiment: Human neutrophil migration assay (embelin-induced); format: cell-based
[2] = molecular target: T1, GPR84 (Homo sapiens, UniProt Q9NQS5); settings: Wang et al. (2006); WO 2007/027661A2; cited from earlier work
T1 construct: expressed in transfected cells; membranes used

[3] = molecular target: T1, GPR84; experiment: GTPγS binding assay (GPR84); format: biochemical; settings: membranes from stable cell line over expressing GPR84; 3,3′ di indolylmethane at EC80
Outline: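 Membranes (20 μg/well) from a stable GPR84-overexpressing line, pre-incubated with 0.1 μM GDP for 15 min at 4° C, mixed with 0.1 nM [35S]GTPγS and WGA SpA beads in 20 mM HEPES pH 7.4, 5 mM MgCl2, 250 mM NaCl, 0.05% BSA, 75 ug/mL saponin; 90 min at room temperature, then scintillation counting.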

[4] = test system: human neutrophils; experiment: Human neutrophil migration assay (embelin-induced); format: cell-based; settings: neutrophils from human buffy coat, 30 min compound pre-incubation, migration towards embelin at EC80 for 1 h, ATPlite readout, read-out: human neutrophil migration inhibition (Neutrophils)
Method: 2. Cellular Assays 2.1. Human Neutrophil Migration Assay
The effect of agonists or antagonists for GPR84 can therefore be assayed in a neutrophil migration test. In the neutrophil migration assay, neutrophils, freshly isolated from buffy coats from human volunteers, are treated with a compound for 30 minutes. Subsequently, the neutrophils are transferred to the upper wells of a Corning HTS transwell 96 permeable support system, of which the lower wells are filled with a embelin solution at EC80 (concentration which gives 80% of the activity of GPR84). After 1 h of incubation, migration of the neutrophils towards embelin in the lower compartment can be quantified by measuring the ATP-content of the lower wells using the ATPlite luminescence ATP detection assay system (Perkin Elmer, Cat. No.: 436110).
A human buffy coat is diluted with an equal volume of ice cold DPBS. 20 mL of the diluted buffy coat is gently mixed with 4 mL of ACD buffer (140 mM citric acid, 200 mM sodium citrate and 220 mM dextrose). Then, 12 mL of the 6% dextran/0.9% NaCl solution (15 g dextran T2000 and 2.25 g NaCl dissolved in 250 mL H2O) is added to the mixture and the samples are inverted gently up to 20 times. The total volume was transferred to a new recipient and incubated at room temperature for 1 h for complete separation of the two phases to occur. The yellowish supernatant is then transferred to a clean centrifugation tube and centrifuged for 12 minutes at 1300 rpm and 4° C. After centrifugation, the supernatant is discarded and the remaining cell pellet is rapidly resuspended in 12 mL of ice-cold H2O for red blood cell lysis to occur. After 20 seconds, 4 mL of ice-cold 0.6 M KCl is added. Samples are mixed carefully and centrifuged for 6 minutes at 1300 rpm, 4° C. The supernatant is discarded and the red blood cell lysis procedure is repeated one more time. Subsequently, the cell pellet is resuspended in 4 mL of DPBS and layered over 5 mL of Lymphoprep (Nycomed Pharma, Cat. No.: 1114545) in a 15 mL centrifuge tube. After centrifugation for 12 min at 1300 rpm, 4° C., the supernatant is removed and the cell pellet, containing the neutrophils, is resuspended in 25 mL chemotaxis buffer (RPMI 1640 medium, supplemented with 10 mM HEPES; freshly made for each experiment)
A cell suspension of 8.9×10^6 cells per milliliter is prepared. 20 μL of compound solution in chemotaxis buffer is added to 180 μL cell suspension. The mixture is incubated at 37° C. for 30 minutes with intermediate resuspension of the cells after 15 minutes. Following this, 70 μL cell suspension is transferred to the upper compartment of a Corning HTS transwell 96 permeable support system with 5.0 μm pore size polycarbonate membrane (Corning, Cat. No.: 3387). The receiver well of the transwell system is then filled with 200 μL chemotaxis buffer containing compound and chemotactic agent (embelin). After incubation at 37° C. in 5% CO2 for 1 h, the upper plate of the transwell system is removed and the cell suspension in the receiver plate is transferred to a 96-well V-bottom plate. 50 μL of DPBS is added to the receiver plate to prevent remaining cells from drying out. The V-bottom plate is centrifuged for 6 minutes at 1500 rpm. The supernatant is removed and the cells are resuspended in 50 μL DPBS. The cells are then transferred back to the receiver plate of the transwell system. After this, 100 μL ATPlite solution (Perkin Elmer, Cat. No: 436110) was added to the cells. The plate is incubated for 10 minutes in the dark, while shaking. […] of cell lysate is then transferred to a white 96-well plate and luminescence is measured. The detected luminescent signal is considered as linearely related to the number of cells having migrated from the upper well to the receiver well.

[5] = test system: RAW264.7 murine macrophage-like cells; settings: RAW264.7 cells stimulated with LPS; cited from earlier work

T1 sequence (Q9NQS5 whole entry): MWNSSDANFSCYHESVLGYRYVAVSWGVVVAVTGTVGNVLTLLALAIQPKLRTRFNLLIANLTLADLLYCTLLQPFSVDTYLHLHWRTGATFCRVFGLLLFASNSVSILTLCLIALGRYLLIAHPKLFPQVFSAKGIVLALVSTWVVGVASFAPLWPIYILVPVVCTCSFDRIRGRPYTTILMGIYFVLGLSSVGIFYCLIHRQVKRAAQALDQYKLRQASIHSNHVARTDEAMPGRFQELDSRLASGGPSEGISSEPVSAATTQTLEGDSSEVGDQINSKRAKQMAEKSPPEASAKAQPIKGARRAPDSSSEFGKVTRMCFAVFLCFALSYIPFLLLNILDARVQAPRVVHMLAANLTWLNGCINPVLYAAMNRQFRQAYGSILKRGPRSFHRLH

Row | IC50 [3] | IC50 [4] | SMILES | also measured
1 | – | – | c1ccc2c(Cc3c[nH]c4ccccc34)c[nH]c2c1 [3,3′ di indolylmethane] | induction of neutrophil chemotaxis by GPR84 agonists [1]: induce neutrophil chemo taxis
2 | – | – | c1ccc2c(Cc3c[nH]c4ccccc34)c[nH]c2c1 [3,3′ di-indolylmethane] | GPR84 agonist activity [2]: some GPR84 agonist activity
3 | 0.01 to 100 nM | 0.01 to 100 nM | O=c1nc(OC[C@@H]2COCCO2)cc2n1CCc1cc(CCC3CC3)ccc1-2 [Compound 123, 9-(2-cyclopropyl-ethyl)-2-((S)-1-[1,4]dioxan-2-ylmethoxy)-6,7-dihydropyrimido[6,1-a]isoquinolin-4-one] | –
4 | 0.01 to 100 nM | 0.01 to 100 nM | CCC(C)(C)CNc1ccc2c(c1)CCn1c-2cc(OC[C@@H]2COCCO2)nc1=O [Compound 126, 9-(2,2-dimethyl-butylamino)-2-((S)-1-[1,4]dioxan-2-ylmethoxy)-6,7-dihydro-pyrimido[6,1-a]isoquinolin-4-one] | –
5 | 101 to 500 nM | 0.01 to 100 nM | COCCOCC#Cc1ccc2c(c1)CCn1c-2cc(OC[C@@H]2COCCO2)nc1=O [Compound 133, 2-((S)-1-[1,4]dioxan-2-ylmethoxy)-9-[3-(2-methoxy-ethoxy)-prop-1-ynyl]-6,7-dihydro-pyrimido[6,1-a]isoquinolin-4-one] | –
6 | 0.01 to 100 nM | 0.01 to 100 nM | O=c1nc(OC[C@@H]2COCCO2)cc2n1CCc1cc(OCC3CCCCO3)ccc1-2 (stereo partly drawn) [Compound 139, 2-((S)-1-[1,4]dioxan-2-ylmethoxy)-9-(tetrahydro-pyran-2-ylmethoxy)-6,7-dihydro-pyrimido[6,1-a]isoquinolin-4-one] | –
7 | 101 to 500 nM | 0.01 to 100 nM | CC(O)CCc1ccc2c(c1)CCn1c-2cc(OC[C@@H]2COCCO2)nc1=O (stereo partly drawn) [Compound 140, 2-((S)-1-[1,4]dioxan-2-ylmethoxy)-9-(3-hydroxy-butyl)-6,7-dihydro-pyrimido[6,1-a]isoquinolin-4-one] | –
8 | 0.01 to 100 nM | 0.01 to 100 nM | O=c1nc(OC[C@@H]2COCCO2)cc2n1CCc1cc(COCC3CCCC3)ccc1-2 [Compound 147, 9-cyclopentylmethoxymethyl-2-((S)-1-[1,4]dioxan-2-ylmethoxy)-6,7-dihydro-pyrimido[6,1-a]isoquinolin-4-one] | –
9 | 101 to 500 nM | 0.01 to 100 nM | CC(O)CCCc1ccc2c(c1)CCn1c-2cc(OC[C@@H]2COCCO2)nc1=O (stereo partly drawn) [Compound 150, 2-((S)-1-[1,4]dioxan-2-ylmethoxy)-9-(4-hydroxy-pentyl)-6,7-dihydro-pyrimido[6,1-a]isoquinolin-4-one] | –
10 | 101 to 500 nM | 0.01 to 100 nM | CC(C)(C)COc1ccc2c(c1)CCn1c-2cc(OC[C@@H]2COCCO2)nc1=O [Compound 158, 9-(2,2-dimethyl-propoxy)-2-((S)-1-[1,4]dioxan-2-ylmethoxy)-6,7-dihydro-pyrimido[6,1-a]isoquinolin-4-one] | –
11 | 0.01 to 100 nM | 0.01 to 100 nM | O=c1nc(OC[C@@H]2COCCO2)cc2n1CCc1cc(OCC3CCOCC3)ccc1-2 [Compound 159, 2-((S)-1-[1,4]dioxan-2-ylmethoxy)-9-(tetrahydro-pyran-4-ylmethoxy)-6,7-dihydro-pyrimido[6,1-a]isoquinolin-4-one] | –
12 | 101 to 500 nM | 101 to 500 nM | CC(C)(O)CCCc1ccc2c(c1)CCn1c-2cc(OC[C@@H]2COCCO2)nc1=O [Compound 160, 2-((S)-1-[1,4]dioxan-2-ylmethoxy)-9-(4-hydroxy-4-methyl-pentyl)-6,7-dihydro-pyrimido[6,1-a]isoquinolin-4-one] | –
13 | 101 to 500 nM | 0.01 to 100 nM | O=c1nc(OC[C@@H]2COCCO2)cc2n1CCc1cc(COCC3CCOCC3)ccc1-2 [Compound 161, 2-((S)-1-[1,4]dioxan-2-ylmethoxy)-9-(tetrahydro-pyran-4-ylmethoxymethyl)-6,7-dihydro-pyrimido[6,1-a]isoquinolin-4-one] | –
14 | 101 to 500 nM | 0.01 to 100 nM | COCCCc1ccc2c(c1)CCn1c-2cc(OC[C@H]2COCCO2)nc1=O [Compound 168, 2-((R)-1-[1,4]Dioxan-2-ylmethoxy)-9-(3-methoxy-propyl)-6,7-dihydro-pyrimido[6,1-a]isoquinolin-4-one] | –
15 | 101 to 500 nM | 0.01 to 100 nM | O=c1nc(OC[C@H]2COCCO2)cc2n1CCc1cc(CCC3(O)CCCC3)ccc1-2 [Compound 169, 2-((R)-1-[1,4]Dioxan-2-ylmethoxy)-9-[2-(1-hydroxy-cyclopentyl)-ethyl]-6,7-dihydro-pyrimido[6,1-a]isoquinolin-4-one] | –
16 | 0.01 to 100 nM | 0.01 to 100 nM | CCCOCCOc1ccc2c(c1)CCn1c-2cc(OC[C@@H]2COCCO2)nc1=O [Compound 170, 2-((S)-1-[1,4]Dioxan-2-ylmethoxy)-9-(2-propoxy-ethoxy)-6,7-dihydro-pyrimido[6,1-a]isoquinolin-4-one] | –
17 | 0.01 to 100 nM | 0.01 to 100 nM | CC(C)OCCOc1ccc2c(c1)CCn1c-2cc(OC[C@@H]2COCCO2)nc1=O [Compound 171, 2-((S)-1-[1,4]Dioxan-2-ylmethoxy)-9-(2-isopropoxy-ethoxy)-6,7-dihydro-pyrimido[6,1-a]isoquinolin-4-one] | –
18 | 0.01 to 100 nM | 0.01 to 100 nM | COCCCCc1ccc2c(c1)CCn1c-2cc(OC[C@@H]2COCCO2)nc1=O [Compound 174, 2-((S)-1-[1,4]Dioxan-2-ylmethoxy)-9-(4-methoxy-butyl)-6,7-dihydro-pyrimido[6,1-a]isoquinolin-4-one] | –
19 | – | – | CCCCCCCCCC(=O)O [capric acid] | secretion of interleukin-12 p40 subunit (IL-12 p40) [5]: dose dependently increased
20 | – | – | CCCCCCCCCCCC(=O)O [lauric acid] | secretion of interleukin-12 p40 subunit (IL-12 p40) [5]: dose dependently increased
21 | – | – | CCCCCCCCCC(=O)[O-].[Na+] [sodiumdecanoate] | induction of neutrophil chemotaxis by GPR84 agonists [1]: induce neutrophil chemo taxis
22 | – | – | CCCCCCCCCCC(=O)O [undecanoic acid] | secretion of interleukin-12 p40 subunit (IL-12 p40) [5]: dose dependently increased
